# Measurements from publication PMC8069289 (Molecules, 2021).
# Entries after “also recorded” stand apart in the source; their conditions may differ.
# Tests used:
# [1] = system: Alu M1 repetitive sequences of HL-60 cells; assay: Methylation status by qMSP, Alu M1; type: cell-based, human; details: HL-60, 5 h, 11 mM GLU
# Protocol: Then, DNA was extracted similarly to previously described DNA fragmentation assay. After that, the DNA was converted with bisulphite (EZ DNA Methylation-Gold™ Kit, Zymo Research, Irvine, CA, USA). Bisulphite-modified DNA was used for fluorescence-based real-time quantitative Methylation-Specific PCR (qMSP) using 5 µM of each forward and reverse primer (Isogen Life Science BV, Utrecht, The Netherlands), 2 µL of iTaq™ Universal SYBR® Green Supermix (Bio-Rad Laboratories, Inc., Hercules, CA, USA); it contains antibody-mediated hot-start iTaq DNA polymerase, dNTPs, MgCl2, SYBR® Green I dye, enhancers, stabilizers and a blend of passive reference dyes including ROX and fluorescein) and 25 ng of bisulphite converted genomic DNA.
# PCR conditions included initial denaturalisation at 95 °C for 3 min and amplification which consisted of 45 cycles at 95 °C for 10 s, 60 °C for 15 s and 72 °C for 15 s, taking picture at the end of each elongation cycle. After that, melting curve was determined increasing 0.5 °C each 0.05 s from 60 °C to 95 °C and taking pictures.
# QMSP was carried out in 48 well plates in MiniOpticon Real-Time PCR System (MJ Mini Personal Thermal Cycler, Bio-Rad) and were analysed by Bio-Rad CFX Manager 3.1 Software. The housekeeping Alu-C4 was used as a reference to correct for total DNA input. […] Each sample was analysed in triplicate. […]
# Drosophila melanogaster = assay: Genotoxicity, wing spot test (SMART); details: simple treatment; for Large Simple Spots (>2 Cells) m = 5 / Small Single Spots (1–2 Cells) m = 2 / Total Spots m = 2: No. of spots in parentheses
# Protocol: The wing spot test was performed to evaluate genotoxicity assays following the standard procedure [14]. Briefly, trans-heterozygous larvae for mwh and flr^3 genes were obtained by crossing four day-old virgin flr^3 females with mwh males in a 2:1 ratio. Four days after fertilization, females were allowed to lay eggs in fresh yeast medium (25 g yeast and 4 mL sterile distilled water) for 8 h in order to obtain synchronized larvae. After 72 h, larvae were collected, washed with distilled water, and clustered in groups of 100 individuals. […] Adult flies were collected and stored in 70% ethanol until the wings were removed and mounted on slides using Faure’s solution. Mutant spots were assessed in both dorsal and ventral surfaces of the wings in a bright light microscope at 400× magnification. The frequencies of each type of mutant clone per wing (single, large or twin spot) were compared with the concurrent negative control [43]. All inconclusive and positive results (p > 0.05) were analysed with the nonparametric U-test of Mann, Whitney and Wilcoxon (α = β = 0.05).
structure (smiles),measurement,setting,value
"OC[C@H]1OC(O)[C@H](O)[C@@H](O)[C@@H]1O (stereo partly drawn) [GLU, Glucose]",methylation status of Alu sequences,[1],hypermethylated; also recorded: significantly increased
"NCCS(=O)(=O)O [TAU, 2-aminoethanesulfonic acid]",Twin Spots m = 5,Drosophila melanogaster; TAU 1 mM,0 clones per wing
same,Large Simple Spots (>2 Cells) m = 5,Drosophila melanogaster; TAU 1 mM,0.08 (3) clones per wing
same,Small Single Spots (1–2 Cells) m = 2,Drosophila melanogaster; TAU 1 mM,0.027 (1) clones per wing
same,Total Spots m = 2,Drosophila melanogaster; TAU 1 mM,0.108 (4) clones per wing
same,Twin Spots m = 5,Drosophila melanogaster; TAU 32 mM,0 clones per wing
same,Large Simple Spots (>2 Cells) m = 5,Drosophila melanogaster; TAU 32 mM,0.05 (2) clones per wing
same,Small Single Spots (1–2 Cells) m = 2,Drosophila melanogaster; TAU 32 mM,0.15 (6) clones per wing
same,Total Spots m = 2,Drosophila melanogaster; TAU 32 mM,0.2 (8) clones per wing
